According to patent US5639887A, “MDR reversal agents” (priority 1995, dated 1997):
Converted amounts (≈) assume the structure as drawn.

Key:
[1] = tested on: bisantrene-resistant human ovarian carcinoma cells S1-B1-20 (OVCAR-3 subclone); experiment: Screening assay for reversal agents: Difference Score with/without 20 μM bisantrene; type: cell-based; conditions: alone vs with 20 μM bisantrene, 3 days, difference in % cell survival; for Difference Score at 1 microM: test agent 1 microM; for Difference Score at 10 microM: test agent 10 microM; for Difference Score at 20 microM: test agent 20 microM
Experimental: Such cells are sorted by a fluorescent activated cell sorter (FACS; Becton Dickinson Model 440).
Cells, prepared by trypsinization, are plated at 20,000 cells/well in media with and without bisantrene. Then, test agents at varying concentrations are added to the cells. […] Completed plates are incubated for 3 days at 37° C. in a moisturized 7% CO2 atmosphere. […] Dye content/well is read at 540 nm in a microtiter reader. Values are electronically processed, % cell survival compared to untreated cells is computed, and the results are expressed as the difference between these values. Experiments are run in the presence of the test agent alone and the test agent in combination with 20 μM bisantrene. The Difference Score between those two experiments is reported below for 3 different concentrations of test agent.

[2] = Limit of solubility of bisantrene; type: physicochemical; conditions: cell culture medium; cell culture maintenance
[3] = tested on: multiple drug resistance tumor cells; conditions: background, resensitizing agents for treatment of cancer; cited from earlier work

| Compound | Difference Score at 1 microM [1] | Difference Score at 10 microM [1] | Difference Score at 20 microM [1] | solubility [2] [µM] | toxic side effects in the clinic [3] |
| --- | --- | --- | --- | --- | --- |
| 2-[7-(4-Fluorophenyl)-7-[(4-methylphenyl)thio]heptyl]-1,2,3,4-tetrahydro-6,7-isoquinoline [Example 95] | 28 | 71 | 57 |  |  |
| COc1ccc(C(C#N)(CCCCCN2Cc3cc(OC)c(OC)cc3C2)SC2CCCCC2)cc1OC (stereo not drawn) [Example 86, α-(Cyclohexylthio)-α-(3,4-dimethoxyphenyl)-1,3-dihydro5,6-dimethoxy-2(1H)-isoindoleheptane nitrile] | 83 | 77 | 29 |  |  |
| COc1ccc(C(C#N)(CCCCCN2Cc3cc(OC)c(OC)cc3C2)SC2CCCCC2)cc1OC.Cl (stereo not drawn) [Example 120, α-(Cyclohexylthio)-α-(3,4-dimethoxyphenyl)-1,3-dihydro 5,6-dimethoxy-2(1H)-isoindoleheptanenitrile hydrochloride] | 83 | 59 | 1 |  |  |
| C(=N\NC1=NCCN1)/c1c2ccccc2c(/C=N/NC2=NCCN2)c2ccccc12 [bisantrene] |  |  |  | 20 (≈ 7.97 µg/mL) |  |
| CN1CCN(CCCN2c3ccccc3Sc3ccc(C(F)(F)F)cc32)CC1 [trifluoroperizine] |  |  |  |  | limited by toxic side effects |
